Experimental data from patent US12052991B2, “Substituted pyridinyloxybenzenes and salts thereof and use thereof as herbicidal agents” (Bayer Aktiengesellschaft, priority 2018, dated 2024).

Tests used:
Assay type in all cases: in vivo
[1] = test system: Echinochloa crus-galli (ECHCG); assay: Herbicidal post-emergence action (Table B1); conditions: rated visually after about 3 weeks, 100% = plants have died, 0% = like control plants
In short: (§1)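 Greenhouse pot-grown weeds in sandy loam, sprayed at the one-leaf stage (2–3 weeks post-sowing) with WP or EC formulations plus 0.5% additive at 600 l/ha water, at 1280 or 320 g/ha. Visual % activity versus untreated controls rated about 3 weeks later (100% = dead).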

[2] = test system: Lolium rigidum (LOLRI); assay: Herbicidal post-emergence action (Table B2); conditions: 1280 g/ha; rated visually after about 3 weeks; 100% = plants have died, 0% = like control plants
Protocol: (§2) Seeds of mono- and dicotyledonous weed plants were placed in plastic pots in sandy loam soil (doubly sown with in each case one species of mono- or dicotyledonous weed plants per pot), covered with soil and cultivated in a greenhouse under controlled growth conditions. 2 to 3 weeks after sowing, the test plants were treated at the one-leaf stage. The compounds of the invention, formulated in the form of wettable powders (WP) or as emulsion concentrates (EC), were applied onto the green parts of the plants as aqueous suspension or emulsion with addition of 0.5% additive at a water application rate of 600 liters per hectare (converted). After the test plants had been kept in the greenhouse under optimum growth conditions for about 3 weeks, the activity of the preparations was rated visually in comparison to untreated controls. For example, 100% activity=the plants have died, 0% activity=like control plants. Tables B1 to B12 below show the effects of selected compounds of the general formula (I) according to Table 1 on various harmful plants and an application rate corresponding to 1280 or 320 g/ha, which were obtained by the experimental procedure mentioned above.

[3] = test system: Poa annua (POAAN); assay: Herbicidal post-emergence action (Table B3); conditions: rated visually after about 3 weeks, 100% = plants have died, 0% = like control plants
In short: as §1

[4] = test system: Setaria viridis (SETVI); assay: Herbicidal post-emergence action (Table B4); conditions: 1280 g/ha; rated visually after about 3 weeks; 100% = plants have died, 0% = like control plants
Protocol: as §2

[5] = test system: Abutilon theophrasti (ABUTH); assay: Herbicidal post-emergence action (Table B5); conditions: rated visually after about 3 weeks, 100% = plants have died, 0% = like control plants
In short: as §1

[6] = test system: Amaranthus retroflexus (AMARE); assay: Herbicidal post-emergence action (Table B6); conditions: visual rating about 3 weeks after treatment, 100% = plants have died, 0% = like control plants
In short: as §1

[7] = test system: Stellaria media (STEME); assay: Herbicidal post-emergence action (Table B8); conditions: visual rating about 3 weeks after treatment, 100% = plants have died, 0% = like control plants
In short: as §1

[8] = test system: Echinochloa crus-galli (ECHCG); assay: Herbicidal pre-emergence action, test C (Table C1); conditions: visual scoring after about 3 weeks, 100% = plants have died, 0% = like control plants
In short: (§3)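 Compounds formulated as WP or EC were sprayed onto soil covering freshly sown weed seeds at 600 L/ha water with 0.5% additive, at 1280 or 320 g/ha. Pots were kept in a greenhouse. After about 3 weeks, damage was scored visually as % versus untreated controls (100% = plants dead).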

[9] = test system: Lolium rigidum (LOLRI); assay: Herbicidal pre-emergence action, test C (Table C2); conditions: dosage 1280 g/ha; visual scoring after about 3 weeks; 100% = plants have died, 0% = like control plants
Description: Seeds of mono- and dicotyledonous weed plants were placed in plastic pots in sandy loam soil (doubly sown with one species each of mono- or dicotyledonous weed plants per pot) and covered with soil. The compounds of the invention, formulated in the form of wettable powders (WP) or as emulsion concentrates (EC), were then applied onto the surface of the covering soil as aqueous suspension or emulsion with addition of 0.5% additive at a water application rate of 600 liters per hectare (converted). After the treatment, the pots were placed in a greenhouse and kept under good growth conditions for the test plants. After about 3 weeks, the effect of the preparations was scored visually in comparison with untreated controls as percentages. For example, 100% activity=the plants have died, 0% activity=like control plants. Tables C1 to C12 below show the effects of selected compounds of the general formula (I) according to Table 1 on various harmful plants and an application rate corresponding to 1280 or 320 g/ha, which were obtained by the experimental procedure mentioned above.

[10] = test system: Poa annua (POAAN); assay: Herbicidal pre-emergence action, test C (Table C3); conditions: visual scoring after about 3 weeks, 100% = plants have died, 0% = like control plants
In short: as §3

[11] = test system: Setaria viridis (SETVI); assay: Herbicidal pre-emergence action, test C (Table C4); conditions: visual scoring after about 3 weeks, 100% = plants have died, 0% = like control plants
In short: as §3

[12] = test system: Abutilon theophrasti (ABUTH); assay: Herbicidal pre-emergence action, test C (Table C5); conditions: visual scoring after about 3 weeks, 100% = plants have died, 0% = like control plants
In short: as §3

[13] = test system: Amaranthus retroflexus (AMARE); assay: Herbicidal pre-emergence action, test C (Table C6); conditions: dosage 1280 g/ha; visual scoring after about 3 weeks; 100% = plants have died, 0% = like control plants
In short: as §3

[14] = test system: Matricaria inodora (MATIN); assay: Herbicidal pre-emergence action, test C (Table C7); conditions: visual scoring after about 3 weeks, 100% = plants have died, 0% = like control plants
In short: as §3

[15] = test system: Stellaria media (STEME); assay: Herbicidal pre-emergence action, test C (Table C8); conditions: visual scoring after about 3 weeks, 100% = plants have died, 0% = like control plants
In short: as §3

[16] = test system: harmful plants ABUTH, AMARE, ECHCG, LOLRI, MATIN, POAAN, SETVI, STEME, ALOMY, DIGSA, KCHSC and VERPE; assay: Herbicidal post-emergence action, summary of Tables B1-B12; conditions: application rate of 1280 or 320 g of active ingredient per hectare; summary in words
In short: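 Greenhouse weeds in sandy loam treated post-emergence at the one-leaf stage, 2–3 weeks after sowing, with WP or EC formulations sprayed with 0.5% additive at 600 L/ha water, 1280 or 320 g/ha. Damage rated visually after about 3 weeks versus untreated controls (0% = like control, 100% = dead).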

[17] = test system: harmful plants ABUTH, AMARE, ECHCG, LOLRI, MATIN, POAAN, SETVI, STEME, ALOMY, DIGSA, KCHSC and VERPE; assay: Herbicidal pre-emergence action (test C), summary of Tables C1-C12; conditions: application rate of 1280 or 320 g of active ingredient per hectare; summary in words
In short: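 Pre-emergence pot test in sandy loam: WP or EC formulations were sprayed onto the covering soil with 0.5% additive at 600 L/ha water, at 1280 or 320 g/ha. Plants were kept in the greenhouse, and activity was rated visually about 3 weeks later as % versus untreated controls (100% = dead).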

Fc1cccnc1Oc1cccc(F)c1-c1cc(C(F)F)no1 [Example 1-23]
90%: Post-emergence action against Setaria viridis (SETVI) [4] | Pre-emergence action against Poa annua (POAAN) ([10]; dosage 320 g/ha) | Pre-emergence action against Matricaria inodora (MATIN) ([14]; dosage 320 g/ha)
100%: Post-emergence action against Echinochloa crus-galli (ECHCG) ([1]; 320 g/ha) | Post-emergence action against Echinochloa crus-galli (ECHCG) ([1]; 1280 g/ha) | Post-emergence action against Lolium rigidum (LOLRI) [2] | Post-emergence action against Poa annua (POAAN) ([3]; 320 g/ha) | Post-emergence action against Poa annua (POAAN) ([3]; 1280 g/ha) | Post-emergence action against Abutilon theophrasti (ABUTH) ([5]; 320 g/ha) | Post-emergence action against Abutilon theophrasti (ABUTH) ([5]; 1280 g/ha) | Post-emergence action against Amaranthus retroflexus (AMARE) ([6]; dosage 320 g/ha) | Post-emergence action against Amaranthus retroflexus (AMARE) ([6]; dosage 1280 g/ha) | Post-emergence action against Stellaria media (STEME) ([7]; dosage 320 g/ha) | Post-emergence action against Stellaria media (STEME) ([7]; dosage 1280 g/ha) | Pre-emergence action against Echinochloa crus-galli (ECHCG) ([8]; dosage 320 g/ha) | Pre-emergence action against Echinochloa crus-galli (ECHCG) ([8]; dosage 1280 g/ha) | Pre-emergence action against Lolium rigidum (LOLRI) [9] | Pre-emergence action against Poa annua (POAAN) ([10]; dosage 1280 g/ha) | Pre-emergence action against Setaria viridis (SETVI) ([11]; dosage 320 g/ha) | Pre-emergence action against Setaria viridis (SETVI) ([11]; dosage 1280 g/ha) | Pre-emergence action against Abutilon theophrasti (ABUTH) ([12]; dosage 320 g/ha) | Pre-emergence action against Abutilon theophrasti (ABUTH) ([12]; dosage 1280 g/ha) | Pre-emergence action against Amaranthus retroflexus (AMARE) [13] | Pre-emergence action against Matricaria inodora (MATIN) ([14]; dosage 1280 g/ha) | Pre-emergence action against Stellaria media (STEME) ([15]; dosage 320 g/ha) | Pre-emergence action against Stellaria media (STEME) ([15]; dosage 1280 g/ha)
very good herbicidal activity: herbicidal activity against the harmful plants of Tables B1-B12 in post-emergence treatment [16] | herbicidal activity against the harmful plants of Tables C1-C12 in pre-emergence treatment [17]
